The target of assay [1] is T1, Plasmodium falciparum plasmepsin V (PfPMV) (Plasmodium falciparum, UniProt Q8I6Z5).
T1 construct: gene PMV; Trx-PfPMVp37
Put plainly: casein proteolysis assay with recombinant enzyme (A280). Format: biochemical.

The target in assay [2] is T1, Plasmodium falciparum plasmepsin V (PfPMV). Put plainly: casein proteolysis assay with recombinant enzyme (A280), Lineweaver-Burk kinetics. Format: biochemical.

Where a SMILES comes first, the peptide text is derived from it. [ ]: non-standard residue; d: D form. The star is where a group is joined. Sta = CC(C)C[C@H](N)[C@@H](O)CC(=O)O; Isovaleryl = CC(C)CC(=O)*

What is called IC50 is the concentration at which inhibition is half-maximal.

T1 sequence (Q8I6Z5 whole entry): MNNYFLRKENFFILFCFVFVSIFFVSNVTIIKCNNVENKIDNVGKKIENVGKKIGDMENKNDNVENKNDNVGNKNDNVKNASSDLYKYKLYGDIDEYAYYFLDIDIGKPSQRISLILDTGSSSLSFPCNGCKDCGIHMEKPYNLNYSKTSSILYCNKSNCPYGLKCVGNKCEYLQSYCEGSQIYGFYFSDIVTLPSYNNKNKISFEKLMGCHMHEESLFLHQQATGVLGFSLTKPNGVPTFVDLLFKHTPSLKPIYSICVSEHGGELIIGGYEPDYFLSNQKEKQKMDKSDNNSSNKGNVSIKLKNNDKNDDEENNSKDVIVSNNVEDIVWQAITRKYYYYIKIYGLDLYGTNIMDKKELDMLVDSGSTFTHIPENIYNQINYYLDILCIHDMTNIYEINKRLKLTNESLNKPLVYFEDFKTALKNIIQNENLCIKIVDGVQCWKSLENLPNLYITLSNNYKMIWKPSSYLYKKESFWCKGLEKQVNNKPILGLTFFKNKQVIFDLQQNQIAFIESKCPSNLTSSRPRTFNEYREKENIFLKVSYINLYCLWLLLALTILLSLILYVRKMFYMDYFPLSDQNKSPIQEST

For `CC(C)CC(=O)N[C@H](C(=O)N[C@H](C(=O)N[C@@H](CC(C)C)[C@@H](O)CC(=O)N[C@@H](C)C(=O)N[C@@H](CC(C)C)[C@@H](O)CC(=O)O)C(C)C)C(C)C` [pepstatin] (Isovaleryl-VV[Sta]A[Sta]-OH), the IC50 in assay [1] amounted to 62.6 µM.
For `O=c1c(O)c(-c2ccc(O)cc2)oc2cc(O)cc(O)c12` [kaempferol], in assay [2], the IC50 is 22.4 µM.
Same read-out and setting: the same measure for `CC(C)=CC[C@@H](O)C1=CC(=O)c2c(O)ccc(O)c2C1=O` [shikonin]: 43.3 µM.
Same read-out and setting: the same measure for `O=c1c(O)c(-c2ccc(O)c(O)c2)oc2cc(O)cc(O)c12` [quercetin]: 53.1 µM.

The values above are taken from paper PMC10307063, “Bioprospection of Selected Plant Secondary Metabolites as Modulators of the Proteolytic Activity of Plasmodium falciparum Plasmepsin V” (BioMed Research International, 2023).
